In patent US10098901B2, “Derivatives of oxazaphosphorines and therapeutic uses thereof” (INSTITUT GUSTAVE ROUSSY, priority 2014, dated 2018):
Where two headings read alike, the source gives them in different places.

Experiments:
[1] = test system: A673 (human Ewing Sarcoma cell line); assay: cells; conditions: for IC50: Homo sapiens, read-out: In vitro Activity (IC50) A673
Description: (§1) The experiments were conducted in the absence of cytochrome.
(§2) The cells were seeded in 96-well plates at optimal cell density determined previously and incubated with 100 μL of DMEM or RPMI containing 10% of FBS and 100 U/mL penicillin and 100 μg/mL streptomycin at 37° C., 5% CO2 in moist atmosphere. After 24 h, the cells were treated with 100 μL of the different pre-activated prodrugs at different concentrations:
(§3) Depending on the cell line, 2 to 5 h incubation are needed to obtain the optimum optical density which was measured at 490 nm wavelength using a microplate reader (EL808, Biotek Instrument). Untreated cells were used as control. Each compound concentration was tested in six replicates.

RMS-1 cell line [2] = assay: cells; conditions: for IC50: read-out: In vitro Activity (IC50) RMS-1
Description: as §1, §2, §3

[3] = Physico-chemical characterisation of nano-assemblies (DLS, Zeta potential, drug loading); format: physicochemical; conditions: nanoprecipitation acetone/water, no surfactant
Description: Nano-assemblies (NAs) from prodrugs Geranyloxy-IFO (3b) at a concentration of 2 mg/mL and 5 mg/ml, were prepared in a single step by nanoprecipitation of solution (8 mg/mL in acetone) in milliQ® water (ratio acetone:water 1:4; v:v). Formation of NAs occurred immediately without the use of any surfactant. The organic solvent was then evaporated at room temperature under vacuum using a Rotavapor® and the organic solvent-free colloidal dispersions were stored at 4° C.
The hydrodynamic diameter of the NAs was measured at 20° C. by Dynamic Light scattering using a Nanosizer ZS (Malvern Instrument Ltd, France). An amount of 20 μL of the suspension was diluted in 980 μL of Milli-Q water. The results give the mean hydrodynamic diameter of the dispersed NAs from three independent series of ten measurements. The standard deviation and the polydispersity index were also given.
The Zeta (ξ) potential was also determined by dilution of 20 μL of the suspension in 980 μL of a […] solution using a Nanosizer ZS (Malvern Instrument Ltd, France).

[4] = test system: human rhabdomyosarcoma (RD cell line) xenografted in nude mice; assay: Anti-tumor effect in vivo, RD xenograft; conditions: intravenous
Description: In vivo cytotoxic efficacy was evaluated first on a model of human rhabdomyosarcoma xenografted in nude mice. The model used is RD cell line. The cells were first amplified in culture and counted. Cells were injected subcutaneously in both flanks of each mouse.
The administration was performed by intravenous route at day 0.

[5] = In vitro release of 4-HO-IFO in mouse plasma; format: in vitro ADME; conditions: 37° C., without activation by cytochromes
[6] = test system: A673 (human Ewing Sarcoma cell line); conditions: comparison values for squalenoyl derivatives (WO2012/076824); cited from earlier work
RMS-1 cell line [7] = conditions: comparison values for squalenoyl derivatives (WO2012/076824); cited from earlier work
[8] = squalenoyl IFO derivatives described in WO2012/076824; cited from earlier work
[9] = A673, 72 h, absence of cytochrome
[10] = RMS-1, 72 h, absence of cytochrome

Question: What does the source list for CC(C)CCCC(C)CCO (stereo not drawn) [3,7-dimethyloctanol]?
Answer: cytotoxicity, in words [1]: The same results were observed; IC50 ([1]; A673, 72 h): > 200 µM; cytotoxicity, in words (RMS-1 cell line [2]): The same results were observed; IC50 (RMS-1 cell line [2]; RMS1, 72 h): > 50 µM

Question: Which “cytotoxicity, in words” value [1, 9] does the source give for CC(C)CCCC(C)CCOC1CCOP(=O)(NCCCl)N1CCCl (stereo not drawn) [13,17-Dimethyloctyloxy-IFO (3c), 13,17-Dimethyloctyloxy-IFO] here?
Answer: Its value is “did not exhibit significant cytotoxicity”.

Question: And the IC50 ([1]; A673, 72 h)?
Answer: The IC50 was > 200 µM.

Question: What about the IC50 ([1]; A673, 96 h) of the same compound?
Answer: The IC50 was 24.5 ± 2.1 µM.

Question: And the IC50 (RMS-1 cell line [2]; RMS1, 72 h)?
Answer: Its IC50 is > 50 µM.

Question: And the IC50 (RMS-1 cell line [2]; RMS1, 96 h)?
Answer: The IC50 was 11.3 ± 5.8 µM.

Question: What about the “cytotoxicity, in words” value (RMS-1 cell line [2]; [10]) of the same compound?
Answer: The value was “did not exhibit significant cytotoxicity”.

Question: And the “formation of nanoparticles (self-assembly)” value [3]?
Answer: The value was “did not provide any suspension of nanoparticles”.

Question: Which “cytotoxicity, in words” value [1] does the source give for CC(C)=CCC/C(C)=C/CO [Geraniol, (trans)-3,7-dimethyl-2,6-octadien-1-ol] here?
Answer: Its value is “The same results were observed”.

Question: What about the IC50 ([1]; A673, 72 h) of the same compound?
Answer: The IC50 was > 200 µM.

Question: What about the “cytotoxicity, in words” value (RMS-1 cell line [2]) of the same compound?
Answer: The value was “The same results were observed”.

Question: And the IC50 (RMS-1 cell line [2]; RMS1, 72 h)?
Answer: Its IC50 is > 50 µM.

Question: What about the “tumor volume growth (Vtjx/Vtj0)” value ([4]; single dose 59 mg/kg, day 0) of the same compound?
Answer: The value was “No tumor growth inhibition”.

Question: What does the source list for CC(C)=CCC/C(C)=C/COC1CCOP(=O)(NCCCl)N1CCCl (stereo not drawn) [Geranyloxy-IFO (bulk) (3b), Geranyloxy-IFO]?
Answer: cytotoxicity, in words [1, 9]: significant cytotoxicity; IC50 ([1]; A673, 72 h): 25.3 ± 1.5 µM; IC50 (RMS-1 cell line [2]; RMS1, 72 h): 9.3 ± 4.2 µM; cytotoxicity, in words (RMS-1 cell line [2]; [10]): significant cytotoxicity; tumor volume growth (Vtjx/Vtj0) ([4]; single dose 158 mg/kg (equivalent to 100 mg/kg of IFO), day 0, free form, listed as Geranyloxy-IFO): showed antitumor activity; tumor volume growth (Vtjx/Vtj0) ([4]; single dose 158 mg/kg (equivalent to 100 mg/kg of IFO), day 0, free form, listed as geranyloxy-IFO): prevent the tumor growth; formation of nanoparticles (self-assembly) ([3]; listed as Geranyloxy-IFO): gave satisfactory NAs; formation of nanoparticles (self-assembly) ([3]; listed as geranyloxy-IFO): able to self-organize into nanoparticles; release of 4-HO-IFO, in words [5]: released

Question: Which “cytotoxicity, in words” value [1] does the source give for O=P1(NCCCl)OCCCN1CCCl (stereo not drawn) [IFO, ifosfamide] here?
Answer: The value was “did not exhibit significant cytotoxicity”.

Question: And the IC50 ([1]; A673, 72 h)?
Answer: Its IC50 is > 200 µM.

Question: What about the “cytotoxicity, in words” value (RMS-1 cell line [2]) of the same compound?
Answer: The value was “did not exhibit significant cytotoxicity”.

Question: What about the IC50 (RMS-1 cell line [2]; RMS1, 72 h) of the same compound?
Answer: The IC50 was > 50 µM.

Question: And the “tumor volume growth (Vtjx/Vtj0)” value ([4]; single dose 300 mg/kg, day 0)?
Answer: Its value is “antitumor activity”.

Question: With CCCCCO [Pentanol, pentanol] as the compound, how does the “cytotoxicity, in words” value [1] read?
Answer: The value was “The same results were observed”.

Question: What about the IC50 ([1]; A673, 72 h) of the same compound?
Answer: Its IC50 is > 200 µM.

Question: What about the “cytotoxicity, in words” value (RMS-1 cell line [2]) of the same compound?
Answer: The value was “The same results were observed”.

Question: What about the IC50 (RMS-1 cell line [2]; RMS1, 72 h) of the same compound?
Answer: Its IC50 is > 500 µM.

Question: With CCCCCOC1CCOP(=O)(NCCCl)N1CCCl (stereo not drawn) [Pentyloxy-IFO (3a), Pentyloxy-IFO] as the compound, how does the IC50 ([1]; A673, 72 h) read?
Answer: The IC50 was 17.7 ± 2.3 µM.

Question: And the IC50 (RMS-1 cell line [2]; RMS1, 72 h)?
Answer: Its IC50 is 5.3 ± 1.7 µM.

Question: What about the “formation of nanoparticles (self-assembly)” value [3] of the same compound?
Answer: Its value is “did not provide any suspension of nanoparticles”.

Question: Which IC50 [6] does the source give for CC(C)=CCC/C(C)=C/CC/C(C)=C/CC/C=C(\C)CC/C=C(\C)CCCOC1CCOP(=O)(NCCCl)N1CCCl (stereo not drawn) [SQ-IFO] here?
Answer: Its IC50 is 22 ± 5 µM.

Question: What about the IC50 (RMS-1 cell line [7]) of the same compound?
Answer: Its IC50 is 11.4 ± 5 µM.

Question: What about the drug loading [8] of the same compound?
Answer: The drug loading was 40.4%.

Question: And the mean diameter [8]?
Answer: The mean diameter was 147 nm.

Question: For CC(C)=CCC/C(C)=C/CC/C(C)=C/CC/C=C(\C)CC/C=C(\C)CCC(=O)NCCSC1CCOP(=O)(NCCCl)N1CCCl (stereo not drawn) [SQ-thio-IFO], which IC50 [6] is on record?
Answer: The IC50 was 23.2 ± 1.3 µM.

Question: And the IC50 (RMS-1 cell line [7])?
Answer: The IC50 was 33 ± 1.8 µM.

Question: What about the drug loading [8] of the same compound?
Answer: Its drug loading is 36.3%.

Question: And the mean diameter [8]?
Answer: Its mean diameter is 170 nm.
